Source: patent US10662203B2, “Pyrido[2,3-b]indole compounds for the treatment and prophylaxis of bacterial infection” (Hoffmann-La Roche Inc., priority 2017, dated 2020)
Converted amounts (≈) assume the structure as drawn.

Columns and labels:
[1] = tested on: HepG2 cells (ATCC HB-8065); experiment: Cytotoxicity assay (HepG2, CellTiter-Blue cell viability); type: cell-based; settings: HepG2 cells, 3 days treatment; "*": the detection limit
How it was run: (§1)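 HepG2 cells (1.2×10^4 per well) exposed to compounds for 3 days; viability then read by CellTiter-Blue fluorescence after 3 h at 37 °C. CC50 from four-parameter logistic fit.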

[2] = Single dose PK study (SDPK) in female CD-1 mouse; type: in vivo; settings: MOUSE IV, 1.0 mg/kg-Solution; for clearance: female, CD-1, plasma, read-out: CL total
Description: Single Dose PK Study (SDPK) in Female CD-1 Mouse: The single dose PK in female CD-1 mouse was performed to assess compound's pharmacokinetic properties. One group of animals were dosed via bolus intravenous (IV) of the respective compound. Blood samples (approximately 30 μL) were collected via saphenous vein at 5 mins, 15 min, 30 min, 1 hr, 2 hr, 4 hr and 7 hr. For last time point (24 hr), samples were collected via cardiac puncture while the mouse was under anesthesia. Blood samples were placed into tubes containing EDTA-K2 anticoagulant (2 μL of 0.5M per tube) and centrifuged at 3000 rpm for 10 minutes at 4° C. within half an hour to separate plasma from the samples. Following centrifugation, plasma samples were stored in polypropylene tubes, quick frozen over dry ice and kept at −70±10° C. until LC/MS/MS analysis. The pharmacokinetic parameters were calculated using non-compartmental module of WinNonlin® Professional 6.4.

[3] = tested on: K. pneumoniae (ATCC10031); experiment: 50% growth inhibitory concentration (IC50) determination assay; type: cell-based; settings: Klebsiella pneumoniae, Iso-Sensitest broth, 0.098 = detection limit
How it was run: (§2)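 Broth microdilution in Iso-Sensitest medium, ~5×10^5 CFU/mL inoculum, compound 50–0.097 μM final (two-fold series), 35±2° C; OD600 read every 20 min over 16 h.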

[4] = tested on: S. aureus (ATCC29213); experiment: as above; type: cell-based; settings: Staphylococcus aureus, Iso-Sensitest broth, 0.098 = detection limit
How it was run: as §2

[5] = tested on: A. baumannii (ATCC17978); experiment: as above; type: cell-based; settings: Iso-Sensitest broth, 0.098 = detection limit
How it was run: as §2

[6] = tested on: multiple species and strains; experiment: Minimal inhibitory concentration (MIC) and MIC90 determination, broth microdilution (CLSI M07-A10); settings: S9: P. aeruginosa ATCC BAA-2113
Description: Minimal Inhibitory Concentration (MIC) and MIC90 Determination:
The MIC of antibacterial compounds against multiple species and strains was determined using the broth microdilution method according to M07-A10 Clinical and Laboratory Standards Institute (CLSI) guidelines (CLSI (2015) Methods for dilution antimicrobial susceptibility tests for bacteria that grow aerobically; Approved Standard, Tenth Edition. CLSI Document M7-A10 (ISBN 1-56238-987-4). Wayne, Pa.: Clinical and Laboratory Standards Institute, 19087, USA.). In short, bacterial strain preparation was performed on D1 and D2. […] 5-10 well-isolated colonies of similar morphology were selected and re-streaked onto fresh agar plates using sterile loops and incubated for 20-24 hr at 35±2° C. Bacterial strains were subcultured two times to ensure fresh inoculums for MIC screening. […] Alternatively, 1-2 colonies were transferred into 500 μL of saline and OD600 was adjusted to ˜0.1 using an OD meter. Bacterial inoculum was diluted by 1:280 for Gram-positive strains and 1:400 for Gram-negative strains into corresponding medium broth (CAMHB, CAMHB+3% lysed horse blood, HTM) (e.g. 35.6 μL of inoculum into 10 mL of CAMHB or 25 μL of inoculum into 10 mL of CAMHB). […] Compound stock concentration=[(highest testing concentration)×100 μL/2 μL] (e.g. if the required highest testing concentration is 64 μg/mL in assay plates, stock concentration=64 μg/mL×100 μL/2 μL=3.2 mg/mL). […] of each well was transferred in a new MTP, which served as the test plate by subsequent inoculation. The bacterial suspension prepared above is dispensed at 98 μL/well within 15 minutes after preparation. Negative controls (lack of bacterial cells) and growth control wells (lack of compound) were included in all plates. MTPs were incubated for 18-24 hours at 35±2° C. in ambient air. The MIC was recorded and CFUs were calculated on Day 4. The assay plate was placed on the top of MIC reader, and the magnification mirror was adjusted to read each wells, recording growth status as raw data. Photo images of each assay plates were recorded using Q Count 530 (Spiral Biotech). The MIC value of each compound, expressed as […], was determined as the lowest concentration required for complete growth inhibition (no visible growth).

[7] = Cytotoxicity assay (HepG2, CellTiter-Blue cell viability); type: cell-based; settings: human; HepG2 cells, 3 days treatment; "*": the detection limit; read-out: CC50
How it was run: as §1

[8] = Lyophilisation solubility assay (LYSA); type: physicochemical; settings: phosphate buffer, pH 6.5, aqueous buffer, thermodynamic from solid, 0.05 M phosphate buffer, HPLC-UV
How it was run: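 Duplicate samples made from 10 mM DMSO stock. DMSO evaporated and the residue taken up in 0.05 M phosphate buffer, pH 6.5, stirred 1 h and shaken 2 h, then left overnight. Filtrate and its 1/10 dilution quantified by HPLC-UV.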

[9] = Acinetobacter baumannii, ATCC17978, A. baumannii ATCC17978

Compound | CC50 [1] | AUC total [2] | clearance [2] | IC50 [3] | IC50 [4] | IC50 ([5]; A. baumannii ATCC17978) | MIC S9 [6] | CC50 at 3 days [7] | IC50 [5, 9] | solubility thermodynamic [8]
CNc1cc(F)c(F)c2c1[nH]c1ncc(-c3cnc4c(c3)c(=O)c(C(=O)O)cn4C3CCNC3)c(N(C)C)c12 (stereo not drawn) [Example 1.02] | > 100000 nM | 291.0 ng·h/mL | 58.8 mL/min/kg | < 0.098 µM | < 0.098 µM | 0.693 µM | 3.335 | – | – | –
CNc1cc(F)c(F)c2c1[nH]c1ncc(-c3cnc4c(c3)c(=O)c(C(=O)O)cn4C)c(N3CCC[C@H]3CN(C)C)c12 [Example 1.14] | – | – | – | < 0.098 µM | < 0.098 µM | – | 7.02 | 29100 nM | 0.154 µM | 407 µg/mL (≈ 725 µM)
CNc1cc(F)c(F)c2c1[nH]c1ncc(-c3cnc4c(c3)c(=O)c(C(=O)O)cn4C)c(N3CC[C@H]4CN(C)CC43)c12 (stereo partly drawn) [Example 1.85] | – | 177.0 ng·h/mL | 94.8 mL/min/kg | < 0.098 µM | < 0.098 µM | – | 6.995 | 35200 nM | 0.089 µM | 101 µg/mL (≈ 180 µM)
CNc1cc(F)cc2c1[nH]c1ncc(-c3cnc4c(c3)c(=O)c(C(=O)O)cn4NC)c(N3CC[C@H]4CN(C)CC43)c12 (stereo partly drawn) [Example 1.86] | – | 194.1 ng·h/mL | 86.5 mL/min/kg | < 0.098 µM | 0.15 µM | – | – | 43400 nM | 0.175 µM | > 805 µg/mL
CNc1cc(F)c(F)c2c1[nH]c1ncc(-c3cnc4c(c3)c(=O)c(C(=O)O)cn4NC)c(N3CC[C@H]4CN(C)CC43)c12 (stereo partly drawn) [Example 1.189] | – | – | – | < 0.098 µM | < 0.098 µM | – | 4.304 | 41200 nM | 0.095 µM | 255 µg/mL (≈ 444 µM)
CNc1cc(F)c(C#N)c2c1[nH]c1ncc(-c3cnc4c(c3)c(=O)c(C(=O)O)cn4C)c(N3CC[C@H]4CN(C)CC43)c12 (stereo partly drawn) [Example 1.274] | – | – | – | – | – | – | 8.508 | – | 0.117 µM | 118 µg/mL (≈ 208 µM)
CNc1cc(F)c(C#N)c2c1[nH]c1ncc(-c3cnc4c(c3)c(=O)c(C(=O)O)cn4NC)c(N3CC[C@H]4CN(C)CC43)c12 (stereo partly drawn) [Example 1.275] | – | – | – | – | – | – | 4.348 | – | 0.281 µM | –
CNc1cc(F)c(F)c2c1[nH]c1ncc(-c3cnc4c(c3)c(=O)c(C(=O)O)cn4C)c(N3CC4C(N(C)C)CO[C@@H]4C3)c12 (stereo partly drawn) [Example 1.286] | – | – | – | – | – | – | 3.973 | – | 0.143 µM | –
CNc1cc(F)c(C#N)c2c1[nH]c1ncc(-c3cnc4c(c3)c(=O)c(C(=O)O)cn4C)c(N3CC[C@H]4CN(C)C[C@H]43)c12 [Example 1.298] | – | 274.0 ng·h/mL | 62.7 mL/min/kg | – | – | – | 17.016 | – | – | –
CNc1cc(F)c(F)c2c1[nH]c1ncc(-c3cnc4c(c3)c(=O)c(C(=O)O)cn4NC)c(N3CC[C@H]4CN(C)C[C@H]43)c12 [Example 3.01A, 6-[5,6-difluoro-8-(methylamino)-4-[(3aS,6aS)-5-methyl-2,3,3a,4,6,6a-hexahydropyrrolo[2,3-c]pyrrol-1-yl]-9H-pyrido[2,3-b]indol-3-yl]-1-(methylamino)-4-oxo-1,8-naphthyridine-3-carboxylic acid] | – | 195.4 ng·h/mL | 81.9 mL/min/kg | < 0.098 µM | < 0.098 µM | – | 1.796 | 54100 nM | 0.034 µM | 264 µg/mL (≈ 459 µM)
CNc1cc(F)c(F)c2c1[nH]c1ncc(-c3cnc4c(c3)c(=O)c(C(=O)O)cn4NC)c(N3CC[C@@H]4CN(C)C[C@@H]43)c12 [Example 3.01B, 6-[5,6-difluoro-8-(methylamino)-4-[(3aR,6aR)-5-methyl-2,3,3a,4,6,6a-hexahydropyrrolo[2,3-c]pyrrol-1-yl]-9H-pyrido[2,3-b]indol-3-yl]-1-(methylamino)-4-oxo-1,8-naphthyridine-3-carboxylic acid] | – | 156.1 ng·h/mL | 105 mL/min/kg | < 0.098 µM | 0.168 µM | – | – | 39400 nM | 0.56 µM | 265 µg/mL (≈ 461 µM)
CNc1cc(F)c(F)c2c1[nH]c1ncc(-c3cnc4c(c3)c(=O)c(C(=O)O)cn4C)c(N3CC[C@H]4CN(C)C[C@H]43)c12 [Example 3.03A] | – | 249.6 ng·h/mL | 66.9 mL/min/kg | < 0.098 µM | < 0.098 µM | – | 1.749 | 38400 nM | 0.039 µM | 137 µg/mL (≈ 245 µM)
CNc1cc(F)cc2c1[nH]c1ncc(-c3cnc4c(c3)c(=O)c(C(=O)O)cn4C)c(N3CC[C@H]4CN(C)C[C@H]43)c12 [Example 3.04A] | – | 241.6 ng·h/mL | 68.9 mL/min/kg | < 0.098 µM | < 0.098 µM | – | 6.77 | 49500 nM | 0.035 µM | 485 µg/mL (≈ 896 µM)
CNc1cc(F)cc2c1[nH]c1ncc(-c3cnc4c(c3)c(=O)c(C(=O)O)cn4NC)c(N3CC[C@H]4CN(C)C[C@H]43)c12 [Example 3.05A] | – | 356.4 ng·h/mL | 50.5 mL/min/kg | < 0.098 µM | < 0.098 µM | – | 6.957 | 54500 nM | 0.055 µM | 535 µg/mL (≈ 961 µM)
CNc1cc(F)c(F)c2c1[nH]c1ncc(-c3cnc4c(c3)c(=O)c(C(=O)O)cn4NC)c(N3C[C@H]4CCN(C)[C@H]4C3)c12 [Example 3.07A] | – | 214.0 ng·h/mL | 77.4 mL/min/kg | < 0.098 µM | < 0.098 µM | – | – | > 100000 nM | 0.076 µM | 20 µg/mL (≈ 34.8 µM)
